Where two headings read alike, the source gives them in different places.

Data set [1] is described as follows: Assay 12: Ocular pharmacokinetics in rabbit eyes. The conditions noted are these: for half-life: New Zealand white, vitreous, intravitreal solution formulation, 200 μg/eye and 50 μg/eye. In kind it is in vivo, New Zealand white rabbits. How it is done:
The objective of this assay was to determine the pharmacokinetics of the compound 1 in rabbit ocular tissues.
The compound of the invention, 5-ethyl-2-fluoro-4-(3-(5-(1-methylpiperidin-4-yl)-4,5,6,7-tetrahydro-1H-imidazo[4,5-c]pyridin-2-yl)-1H-indazol-6-yl)phenol (1) was dissolved in either 10% 2-hydroxypropyl-β-cyclodextrin to attain a target concentration of 4 mg/mL or in purified water to attain a target concentration of 1 mg/mL . Bilateral intravitreal injection (50 μL/eye) of the solution of test compound was administered to New Zealand white rabbits in two dose groups, 200 μg/eye and 50 μg/eye, respectively, for the cyclodextrin and water vehicle formulations, respectively. The test compound concentration was measured in ocular tissues: vitreous, aqueous, retina/choroid and iris-ciliary body at pre-determined time points post injection (30 min, 4 h, 1 d, 3 d, 7 d, 14 d). Two rabbits (four eyes) were dosed for each time point.
A suspension formulation was prepared by combining crystalline compound 1 of Example 2 with 0.5% hydroxypropyl methylcellulose (HPMC E5)+0.02% Tween 80 to attain a target concentration of 10 mg/mL. Bilateral intravitreal injection (50 μL/eye) of the suspension of test compound was administered to New Zealand white rabbits (500 μg/eye). The test compound concentration was measured in ocular tissues as in the […] at 30 min, 2 wks, 4 wks, 6 wks, and 8 wks post injection. […] The behavior is consistent with the solubility of compound 1 in the vehicle and the ocular pharmacokinetic behavior in the solution formulation. The drug concentration in plasma was measured and found to be at least 3 orders of magnitude lower than the concentration in vitreous tissue.

Another data set addresses T1, JAK3 (Homo sapiens, UniProt P52333).
T1 construct: GST; purchased Life Technologies
T1 sequence (P52333 1-1124): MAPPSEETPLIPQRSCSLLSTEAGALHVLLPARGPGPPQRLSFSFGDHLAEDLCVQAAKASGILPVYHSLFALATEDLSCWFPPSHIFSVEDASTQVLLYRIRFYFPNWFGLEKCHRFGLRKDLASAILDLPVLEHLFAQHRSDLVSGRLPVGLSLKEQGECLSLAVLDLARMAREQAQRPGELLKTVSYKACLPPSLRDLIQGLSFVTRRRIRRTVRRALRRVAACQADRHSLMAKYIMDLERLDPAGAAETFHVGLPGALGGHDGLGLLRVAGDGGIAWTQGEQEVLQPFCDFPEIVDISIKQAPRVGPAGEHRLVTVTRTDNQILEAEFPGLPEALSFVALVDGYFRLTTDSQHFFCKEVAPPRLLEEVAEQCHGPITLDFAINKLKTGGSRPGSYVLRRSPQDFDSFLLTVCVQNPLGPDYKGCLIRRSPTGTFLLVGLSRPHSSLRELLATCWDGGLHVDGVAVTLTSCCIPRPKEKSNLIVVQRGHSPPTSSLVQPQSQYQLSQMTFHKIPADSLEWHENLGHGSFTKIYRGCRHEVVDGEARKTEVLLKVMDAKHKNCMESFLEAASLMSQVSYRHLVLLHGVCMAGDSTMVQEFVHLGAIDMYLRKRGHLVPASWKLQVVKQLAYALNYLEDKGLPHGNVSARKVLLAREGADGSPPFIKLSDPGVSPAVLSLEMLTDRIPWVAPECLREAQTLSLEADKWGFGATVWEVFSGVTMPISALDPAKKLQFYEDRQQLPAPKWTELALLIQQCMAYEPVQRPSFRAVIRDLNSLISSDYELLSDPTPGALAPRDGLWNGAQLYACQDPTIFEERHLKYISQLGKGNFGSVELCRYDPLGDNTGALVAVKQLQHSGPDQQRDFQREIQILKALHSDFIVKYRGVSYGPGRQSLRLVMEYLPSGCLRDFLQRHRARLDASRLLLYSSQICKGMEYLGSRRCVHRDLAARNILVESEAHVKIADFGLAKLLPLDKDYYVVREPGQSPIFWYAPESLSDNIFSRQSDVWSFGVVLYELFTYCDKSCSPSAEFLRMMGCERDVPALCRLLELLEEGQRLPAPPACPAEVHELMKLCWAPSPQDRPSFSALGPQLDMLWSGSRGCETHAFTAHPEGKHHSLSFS
Nature of the data set: Assay 1: LanthaScreen biochemical JAK kinase assay, JAK3. To be noted: converted from pIC50 by Cheng-Prusoff; ATP at Km 1.6 μM; read-out: JAK 3 pKi (converted). How it is done:
A panel of four LanthaScreen JAK biochemical assays (JAK1, 2, 3 and Tyk2) were carried in a common kinase reaction buffer (50 mM HEPES, pH 7.5, 0.01% Brij-35, 10 mM MgCl2, and 1 mM EGTA). Recombinant GST-tagged JAK enzymes and a GFP-tagged STAT1 peptide substrate were obtained from Life Technologies.
ATP was subsequently added to initiate the kinase reactions in 10 μL total volume, with 1% DMSO. […] Kinase reactions were allowed to proceed for 1 hour at ambient temperature before a 10 μL preparation of EDTA (10 mM final concentration) and Tb-anti-pSTAT1 (pTyr701) antibody (Life Technologies, 2 nM final concentration) in TR-FRET dilution buffer (Life Technologies) was added. […] Emission ratio signals (520 nm/495 nm) were recorded and utilized to calculate the percent inhibition values based on DMSO and background controls.
For dose-response analysis, percent inhibition data were plotted vs. compound concentrations, and IC50 values were determined from a 4-parameter robust fit model with the Prism software (GraphPad Software).
(TR-FRET usually uses a lanthanide donor and a delayed reading to cut background.)

Take `CCc1cc(O)c(F)cc1-c1ccc2c(-c3nc4c([nH]3)CCN(C3CCN(C)CC3)C4)n[nH]c2c1` [Compound 1, 5-ethyl-2-fluoro-4-(3-(5-(1-methylpiperidin-4-yl)-4,5,6,7-tetrahydro-1H-imidazo[4,5-c]pyridin-2-yl)-1H-indazol-6-yl)phenol]: the half-life in data set [1] (read-out: half-life of initial decrease in concentration in vitreous tissue (converted)) is approximately 12 h; in data set [1] (read-out: terminal half-life in vitreous tissue (converted)) it was approximately 86.4 h. For the same compound, in data set [1] (intravitreal suspension of crystalline compound 1 of Example 2, 500 μg/eye, 30 min to 6 weeks), the “clearance rate (linear decrease in drug concentration in the vitreous)” value is listed as “approximately 3 μg/mL/day”. The Ki at JAK3 was 0.2 nM.

Source of the values: patent US10251874B2, “Crystalline forms of a JAK inhibitor compound” (THERAVANCE BIOPHARMA R&D IP, LLC, priority 2017, dated 2019).
